Key:
CREB-binding protein = CREB-binding protein (Homo sapiens, UniProt Q92793); experiment: Binding affinity to biotinylated CREBBP (1043 to 1159 amino acid residues) (unknown origin) expressed in Rosetta2 DE3 cells by bio-layer interferometry method
[1] = target: T1, ATPase family AAA domain-containing protein 2 (Homo sapiens, UniProt Q6PL18); experiment: Binding affinity to biotinylated ATAD2A (981 to 1108 amino acid residues) (unknown origin) expressed in Rosetta2 DE3 cells by bio-layer interferometry method
T1 sequence (Q6PL18 whole entry): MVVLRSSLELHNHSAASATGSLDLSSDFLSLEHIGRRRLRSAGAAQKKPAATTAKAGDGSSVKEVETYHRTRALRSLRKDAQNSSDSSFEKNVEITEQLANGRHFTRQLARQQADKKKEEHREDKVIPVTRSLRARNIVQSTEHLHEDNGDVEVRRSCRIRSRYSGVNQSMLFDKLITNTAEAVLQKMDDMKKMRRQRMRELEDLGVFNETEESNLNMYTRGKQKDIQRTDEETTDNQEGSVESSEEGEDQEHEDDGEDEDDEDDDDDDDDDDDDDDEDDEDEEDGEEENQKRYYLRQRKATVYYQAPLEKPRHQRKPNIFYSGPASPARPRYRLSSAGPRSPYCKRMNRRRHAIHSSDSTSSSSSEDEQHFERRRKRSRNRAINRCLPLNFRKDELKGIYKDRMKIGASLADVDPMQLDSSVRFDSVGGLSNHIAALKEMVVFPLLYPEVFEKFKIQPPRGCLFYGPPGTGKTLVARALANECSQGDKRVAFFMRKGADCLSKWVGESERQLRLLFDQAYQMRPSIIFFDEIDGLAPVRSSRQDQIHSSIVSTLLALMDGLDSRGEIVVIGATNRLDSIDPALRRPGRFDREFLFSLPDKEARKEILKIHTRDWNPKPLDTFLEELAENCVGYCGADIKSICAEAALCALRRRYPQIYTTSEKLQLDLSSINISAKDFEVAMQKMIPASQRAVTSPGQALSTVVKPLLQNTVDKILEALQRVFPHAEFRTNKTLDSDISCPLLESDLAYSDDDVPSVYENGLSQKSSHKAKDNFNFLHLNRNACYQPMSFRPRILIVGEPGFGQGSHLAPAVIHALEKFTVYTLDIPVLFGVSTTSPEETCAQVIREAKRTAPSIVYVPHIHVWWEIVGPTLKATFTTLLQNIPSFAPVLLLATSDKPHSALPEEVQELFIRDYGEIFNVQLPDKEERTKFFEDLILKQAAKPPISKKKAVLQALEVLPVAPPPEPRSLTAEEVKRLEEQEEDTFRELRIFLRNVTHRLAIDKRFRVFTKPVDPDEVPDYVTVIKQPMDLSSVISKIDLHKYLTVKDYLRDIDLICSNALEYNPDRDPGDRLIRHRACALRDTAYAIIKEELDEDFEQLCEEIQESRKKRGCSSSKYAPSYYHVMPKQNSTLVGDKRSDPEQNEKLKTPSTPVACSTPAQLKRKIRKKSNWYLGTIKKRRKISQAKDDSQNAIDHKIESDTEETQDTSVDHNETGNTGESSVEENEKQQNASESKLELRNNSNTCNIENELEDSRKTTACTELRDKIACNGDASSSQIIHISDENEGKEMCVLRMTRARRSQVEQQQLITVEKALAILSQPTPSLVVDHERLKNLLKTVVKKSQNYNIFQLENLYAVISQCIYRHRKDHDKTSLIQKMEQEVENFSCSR

[2] = target: T2, Bromodomain-containing protein 4 (Homo sapiens, UniProt O60885); experiment: Displacement of FAM-labeled ZBA248 from BRD4 BD1 (44 to 168 amino acid residues) (unknown origin) expressed in Rosetta2 DE3 cells after 30 mins by fluorescence polarization assay
[3] = target: T3, Bromodomain-containing protein 2 (Homo sapiens, UniProt P25440); experiment: Displacement of FAM-labeled ZBA248 from BRD2 BD1 (72 to 205 amino acid residues) (unknown origin) expressed in Rosetta2 DE3 cells after 30 mins by fluorescence polarization assay
[4] = target: Transcription initiation factor TFIID subunit 1 (Homo sapiens, UniProt P21675); experiment: Binding affinity to biotinylated TAF1B2 (155 to 276 amino acid residues) (unknown origin) expressed in Rosetta2 cells by bio-layer interferometry method
[5] = target: SWI/SNF-related matrix-associated actin-dependent regulator of chromatin subfamily A member 4 (Homo sapiens, UniProt P51532); experiment: Binding affinity to biotinylated BRG1 (59 to 180 amino acid residues) (unknown origin) expressed in Rosetta2 cells by bio-layer interferometry method
[6] = target: T3, Bromodomain-containing protein 2; experiment: Displacement of FAM-labeled ZBA248 from BRD2 BD2 (349 to 460 amino acid residues) (unknown origin) expressed in Rosetta2 DE3 cells after 30 mins by fluorescence polarization assay
[7] = target: T2, Bromodomain-containing protein 4; experiment: Displacement of FAM-labeled ZBA248 from BRD4 BD2 (333 to 460 amino acid residues) (unknown origin) expressed in Rosetta2 DE3 cells after 30 mins by fluorescence polarization assay
Protein polybromo-1 = Protein polybromo-1 (Homo sapiens, UniProt Q86U86); experiment: Binding affinity to biotinylated PB1BR5 (645 to 766 amino acid residues) (unknown origin) expressed in Rosetta2 cells by bio-layer interferometry method
[8] = target: Bromodomain adjacent to zinc finger domain protein 2B (Homo sapiens, UniProt Q9UIF8); experiment: Binding affinity to biotinylated BAZ2B (2054 to 2168 amino acid residues) (unknown origin) expressed in Rosetta2 DE3 cells by bio-layer interferometry method
Sequence of Bromodomain adjacent to zinc finger domain protein 2B (Q9UIF8 whole entry, the tested form may be a part): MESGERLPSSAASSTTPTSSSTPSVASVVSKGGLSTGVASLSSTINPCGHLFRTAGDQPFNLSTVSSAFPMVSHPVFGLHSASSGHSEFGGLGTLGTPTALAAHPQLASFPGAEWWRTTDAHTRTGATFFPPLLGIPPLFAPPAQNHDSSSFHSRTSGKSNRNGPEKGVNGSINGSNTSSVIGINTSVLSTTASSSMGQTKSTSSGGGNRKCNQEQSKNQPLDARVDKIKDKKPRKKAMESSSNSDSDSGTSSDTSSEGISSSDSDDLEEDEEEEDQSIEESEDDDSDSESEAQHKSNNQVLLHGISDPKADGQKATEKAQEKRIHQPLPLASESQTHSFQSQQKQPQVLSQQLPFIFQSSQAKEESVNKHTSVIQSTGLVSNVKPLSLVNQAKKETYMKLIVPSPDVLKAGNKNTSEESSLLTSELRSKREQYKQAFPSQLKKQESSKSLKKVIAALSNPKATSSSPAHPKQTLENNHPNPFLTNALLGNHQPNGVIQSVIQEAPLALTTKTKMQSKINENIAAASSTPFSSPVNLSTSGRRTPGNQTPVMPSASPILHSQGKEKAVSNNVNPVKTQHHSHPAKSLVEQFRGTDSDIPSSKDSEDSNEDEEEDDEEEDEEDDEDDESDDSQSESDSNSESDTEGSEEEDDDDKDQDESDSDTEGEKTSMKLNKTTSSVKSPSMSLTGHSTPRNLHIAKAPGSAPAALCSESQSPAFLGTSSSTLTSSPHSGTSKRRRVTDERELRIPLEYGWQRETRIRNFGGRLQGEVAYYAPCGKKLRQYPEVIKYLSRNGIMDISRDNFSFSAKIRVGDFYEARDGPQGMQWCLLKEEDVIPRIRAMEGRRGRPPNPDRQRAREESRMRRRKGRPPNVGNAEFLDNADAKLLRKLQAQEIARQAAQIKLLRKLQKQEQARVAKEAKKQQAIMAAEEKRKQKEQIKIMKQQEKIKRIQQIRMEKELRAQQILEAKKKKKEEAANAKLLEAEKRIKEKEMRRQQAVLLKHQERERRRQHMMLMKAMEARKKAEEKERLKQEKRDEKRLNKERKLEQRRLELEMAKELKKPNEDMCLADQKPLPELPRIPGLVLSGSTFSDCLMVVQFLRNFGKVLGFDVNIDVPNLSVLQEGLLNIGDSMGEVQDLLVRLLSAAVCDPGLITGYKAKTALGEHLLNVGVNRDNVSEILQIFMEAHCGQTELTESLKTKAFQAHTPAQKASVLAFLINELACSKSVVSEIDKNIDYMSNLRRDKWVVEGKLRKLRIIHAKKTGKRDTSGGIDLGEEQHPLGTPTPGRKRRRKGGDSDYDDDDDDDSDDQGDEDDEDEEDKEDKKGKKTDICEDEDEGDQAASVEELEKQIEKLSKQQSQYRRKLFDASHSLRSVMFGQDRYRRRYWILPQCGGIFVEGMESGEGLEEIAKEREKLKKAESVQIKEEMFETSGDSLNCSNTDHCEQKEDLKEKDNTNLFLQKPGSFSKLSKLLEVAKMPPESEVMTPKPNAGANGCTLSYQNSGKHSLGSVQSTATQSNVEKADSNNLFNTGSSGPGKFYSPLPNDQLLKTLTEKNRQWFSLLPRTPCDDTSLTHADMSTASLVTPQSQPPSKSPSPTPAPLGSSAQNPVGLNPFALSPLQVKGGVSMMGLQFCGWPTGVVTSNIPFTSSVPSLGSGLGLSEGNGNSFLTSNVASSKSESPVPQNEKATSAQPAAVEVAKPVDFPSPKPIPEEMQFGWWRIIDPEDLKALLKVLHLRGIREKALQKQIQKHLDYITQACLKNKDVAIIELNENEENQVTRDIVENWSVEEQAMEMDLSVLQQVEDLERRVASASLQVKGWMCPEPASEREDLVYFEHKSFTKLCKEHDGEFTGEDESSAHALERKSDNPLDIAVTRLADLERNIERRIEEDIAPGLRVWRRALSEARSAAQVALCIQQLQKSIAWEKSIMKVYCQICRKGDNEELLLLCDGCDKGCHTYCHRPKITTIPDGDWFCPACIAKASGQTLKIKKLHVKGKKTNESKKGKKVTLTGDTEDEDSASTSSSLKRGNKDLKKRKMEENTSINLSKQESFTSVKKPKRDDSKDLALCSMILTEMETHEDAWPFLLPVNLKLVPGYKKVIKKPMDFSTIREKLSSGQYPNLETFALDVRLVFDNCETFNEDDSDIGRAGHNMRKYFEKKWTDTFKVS

T3 sequence (P25440 whole entry, the tested form may be a part): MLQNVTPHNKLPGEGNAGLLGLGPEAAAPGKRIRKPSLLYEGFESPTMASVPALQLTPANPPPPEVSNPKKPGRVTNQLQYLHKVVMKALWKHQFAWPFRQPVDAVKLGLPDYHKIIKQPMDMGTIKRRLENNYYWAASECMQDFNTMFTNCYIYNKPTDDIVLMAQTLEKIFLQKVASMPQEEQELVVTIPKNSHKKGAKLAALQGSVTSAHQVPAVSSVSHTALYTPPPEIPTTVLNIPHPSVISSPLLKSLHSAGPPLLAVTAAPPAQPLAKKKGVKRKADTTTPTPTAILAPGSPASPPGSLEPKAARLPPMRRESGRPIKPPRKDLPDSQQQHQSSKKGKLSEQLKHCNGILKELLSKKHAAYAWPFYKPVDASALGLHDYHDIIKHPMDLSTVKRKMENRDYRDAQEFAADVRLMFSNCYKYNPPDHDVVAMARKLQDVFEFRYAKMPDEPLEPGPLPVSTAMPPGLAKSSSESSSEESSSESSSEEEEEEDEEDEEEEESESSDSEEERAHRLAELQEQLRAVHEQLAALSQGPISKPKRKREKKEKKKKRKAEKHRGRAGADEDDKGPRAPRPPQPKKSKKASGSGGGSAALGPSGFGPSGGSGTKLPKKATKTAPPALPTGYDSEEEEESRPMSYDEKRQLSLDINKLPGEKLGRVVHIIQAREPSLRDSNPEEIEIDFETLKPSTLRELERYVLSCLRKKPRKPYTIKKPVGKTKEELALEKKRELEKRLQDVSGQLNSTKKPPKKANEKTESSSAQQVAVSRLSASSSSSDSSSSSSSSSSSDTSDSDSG
Sequence of Protein polybromo-1 (Q86U86 whole entry, the tested form may be a part): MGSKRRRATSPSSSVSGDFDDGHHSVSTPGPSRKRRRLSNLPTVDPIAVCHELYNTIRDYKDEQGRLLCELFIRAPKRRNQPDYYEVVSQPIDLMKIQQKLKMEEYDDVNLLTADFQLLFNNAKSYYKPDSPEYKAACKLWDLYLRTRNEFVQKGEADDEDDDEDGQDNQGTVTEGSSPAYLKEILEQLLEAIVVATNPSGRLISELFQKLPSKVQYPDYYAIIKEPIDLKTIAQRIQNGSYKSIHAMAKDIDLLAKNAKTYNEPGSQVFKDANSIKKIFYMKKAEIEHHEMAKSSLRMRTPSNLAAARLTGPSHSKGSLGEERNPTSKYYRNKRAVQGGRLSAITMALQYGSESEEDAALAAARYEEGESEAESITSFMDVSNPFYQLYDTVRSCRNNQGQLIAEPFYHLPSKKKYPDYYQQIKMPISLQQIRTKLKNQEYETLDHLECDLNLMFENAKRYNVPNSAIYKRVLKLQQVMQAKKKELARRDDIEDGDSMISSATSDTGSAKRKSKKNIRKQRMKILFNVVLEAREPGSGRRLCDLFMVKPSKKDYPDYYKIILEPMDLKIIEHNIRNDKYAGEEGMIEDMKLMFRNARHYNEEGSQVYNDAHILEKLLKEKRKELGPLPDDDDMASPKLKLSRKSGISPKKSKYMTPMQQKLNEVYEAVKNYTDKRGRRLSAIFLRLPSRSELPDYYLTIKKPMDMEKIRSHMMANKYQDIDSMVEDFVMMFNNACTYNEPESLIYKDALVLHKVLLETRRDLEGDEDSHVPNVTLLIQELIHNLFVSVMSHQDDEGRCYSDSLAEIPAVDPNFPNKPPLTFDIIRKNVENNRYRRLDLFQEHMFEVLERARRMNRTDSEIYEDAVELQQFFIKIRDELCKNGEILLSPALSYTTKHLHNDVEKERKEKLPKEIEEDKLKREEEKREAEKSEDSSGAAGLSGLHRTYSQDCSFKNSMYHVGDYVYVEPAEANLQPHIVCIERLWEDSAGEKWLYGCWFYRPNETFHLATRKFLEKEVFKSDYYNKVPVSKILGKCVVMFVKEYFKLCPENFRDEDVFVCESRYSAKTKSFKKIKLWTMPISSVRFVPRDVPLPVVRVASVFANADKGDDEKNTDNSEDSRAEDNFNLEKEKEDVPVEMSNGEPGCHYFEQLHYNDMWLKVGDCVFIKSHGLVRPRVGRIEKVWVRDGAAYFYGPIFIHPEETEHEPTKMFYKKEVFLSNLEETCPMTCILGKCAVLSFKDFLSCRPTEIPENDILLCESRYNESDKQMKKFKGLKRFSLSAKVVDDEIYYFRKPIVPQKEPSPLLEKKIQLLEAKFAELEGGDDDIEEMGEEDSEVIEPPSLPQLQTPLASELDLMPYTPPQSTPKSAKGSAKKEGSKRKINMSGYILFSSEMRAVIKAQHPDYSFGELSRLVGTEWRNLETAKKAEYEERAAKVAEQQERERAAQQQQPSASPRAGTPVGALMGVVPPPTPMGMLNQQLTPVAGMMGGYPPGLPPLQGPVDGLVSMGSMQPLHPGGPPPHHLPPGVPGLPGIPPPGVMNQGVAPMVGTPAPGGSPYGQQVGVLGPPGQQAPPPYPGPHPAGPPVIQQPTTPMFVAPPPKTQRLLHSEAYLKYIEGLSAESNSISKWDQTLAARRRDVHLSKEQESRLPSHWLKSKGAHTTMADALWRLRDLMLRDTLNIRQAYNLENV

Kd (CREB-binding protein): 670 nM
Kd [1]: > 10000 nM
IC50 [2]: 75.5 nM
Ki [2]: 24.7 nM
Ki [3]: 11.1 nM
Kd [4]: > 10000 nM
Kd [5]: > 10000 nM
Ki [6]: 11.7 nM
IC50 [7]: 36.5 nM
Ki [7]: 12.2 nM
Kd (Protein polybromo-1): > 10000 nM
Kd [8]: > 10000 nM
Compound: COc1cc2c(cc1-c1c(C)noc1C)[nH]c1ccnc(-c3c(C4CC4)n[nH]c3C)c12

From ChEMBL document CHEMBL3580597 (J Med Chem, 2015)
